The record followed here is patent publication EP1132396A1, “PHYSIOLOGICALLY ACTIVE PEPTIDES” (KYOWA HAKKO KOGYO CO., LTD., priority 1998, dated 2000).

Values after ≈ are worked out from the molar mass of the structure shown. Residues, ends and D or L forms follow the SMILES beside them.

The subject of data set [1] is C3H/HeSlc mice. In words: Effect on hair growth of mouse (feed administration). The data set is classed as in vivo. The note with it: 20th day, control group subtracted. Here is the method: A test of the effect on hair growth of mice was carried out referring to the method of Ogawa, et al. [The Journal of Dermatology, 10, 45-54 (1983)].
Nine-weeks-old male C3H/HeSlc mice whose hair cycle was in the telogen (Japan SLC) were divided into groups each consisting of 4 or 5 mice. Hair on the back of each mouse was carefully shaven using electric hair clippers and an electric shaver. Then, the mice were fed with the feeds prepared in Reference Examples 1-4.
The control group was fed only with a powder feed containing no peptide of the present invention (CE-2, Clea Japan, Inc.)
On the 20th day after the start of the test, the skin on the back of each mouse was cut off and photographed. Using an image processor (Avionics Co., Spicca II), the percentage of the hair-grown area to the total area of the skin on the back was calculated. The rate of the increased hair-grown area (%) was obtained by subtracting the hair-growing rate of the control group from the hair-growing rate of the group fed with a powder feed containing a peptide of the present invention.

Data set [2] can be described thus: Water solubility of the peptides. The data set is classed as physicochemical. The source says:
The physicochemical properties of the peptides of the present invention obtained by the above-described process are shown below.

The test system of data set [3] is human peripheral blood leukocytes. Nature of the data set: Measurement of phagocytosis activity (fluorescence-labeled latex beads, flow cytometry). The data set is classed as cell-based. The following applies: rate based on the control (only PBS). As for the experimental part:
To human peripheral blood was added physiological saline containing phosphate buffer (PBS), and the resulting mixture was centrifuged at 1000 rpm for 5 minutes to wash blood cells. Then, the blood cells were suspended in PBS to prepare a suspension having a density of 4 x 10^6 cells/ml. To 100 µl of the suspension was added 10 µl of a solution of a peptide in PBS, followed by incubation at 37°C for 10 minutes. Then, 10 µl of a suspension of 4 x 10^8/ml fluorescence-labeled latex beads opsonized with human peripheral blood was added thereto, and the resulting mixture was incubated for 5 minutes. To the mixture was added PBS containing ethylenediaminetetraacetic acid (EDTA) to stop the reaction. The resulting mixture was centrifuged to separate blood cells, and an ammonium chloride hemolyzing agent was added thereto for hemolysis to obtain leukocytes. After the obtained leukocytes were suspended in PBS containing EDTA, the resulting suspension was subjected to flow cytometry, and the number of cells which phagocytosed latex beads was calculated.
The results are expressed in terms of the rate based on the control (containing only PBS).

Data set [4] concerns mouse hair follicle cells. In words: Cell growth-promoting effect on cultured mouse hair follicle cells (Neutral Red). The data set is classed as cell-based, C3H mouse. The note with it: 5 days culture. Here is the method:
Mouse hair follicle cells were separated and cultured according to a modification of the method of Tanigaki, et al. [Archives of Dermatological Research, 284, 290-296 (1992)].
The skin on the back of a 4-days-old C3H mouse (Nippon Charles River Co., Ltd.) was cut off and treated with Eagle's MEM (Eagle's Minimum Essential Medium, Nissui Pharmaceutical Co., Ltd.) containing 500 units/ml Dispase (Godo Shusei Co., Ltd.) and 5% fetal calf serum (FCS) at 4°C for 16 hours. Then, the epidermis was stripped from the skin section, and the obtained dermis layer was treated with DMEM (Dulbecco's Modified Eagle Medium) containing 0.25% Collagenase N-2 (Nitta Gelatin Co., Ltd.) and 10% FCS at 37°C for one hour to obtain a dermis suspension. The dermis suspension was filtered through a 212-µm nylon mesh (Nippon Rikagaku Kikai Co., Ltd.) and the filtrate was centrifuged at 1000 rpm for 5 minutes to obtain pellets containing hair follicle tissue. To the pellets was added calcium/magnesium-free PBS (Dulbecco's Phosphate-Buffered Saline) and the pellets were suspended therein using a pipette. The resulting suspension was allowed to stand for 15 minutes to precipitate the hair tissue. The same procedure as above (addition of calcium/magnesium-free PBS, preparation of a suspension using a pipette, and precipitation by standing for 15 minutes) was repeated three times using the obtained hair tissue. Then, the hair tissue was treated with an aqueous solution containing 0.1% ethylenediaminetetraacetic acid (EDTA) and 0.25% trypsin (Gibco) at 37°C for 5 minutes. To the resulting mixture was added DMEM containing 10% FCS to prepare a hair tissue cell suspension having a density of 3 x 10^5 cells/ml.
This hair tissue cell suspension was put into wells of a 24-well collagen-coated plate (Iwaki Glass Co., Ltd.) in an amount of 1 ml/well, followed by culturing in 5% CO2 at 37°C for 24 hours. After the completion of culturing, the medium was replaced by a medium prepared by adding to MCDB153 medium (Kyokuto Pharmaceutical Ind. Co., Ltd.) 5 mg/l bovine insulin (Sigma Chemical Co.), 5 µg/l mouse epidermal growth factor (EGF) (Takara Shuzo Co., Ltd.), 40 mg/l bovine pituitary extract (Kyokuto Pharmaceutical Ind. Co., Ltd.), 10 mg/l human transferrin (Sigma Chemical Co.), 0.4 mg/l hydrocortisone (Sigma Chemical Co.), 0.63 µg/l progesterone (Collaborative Research Co.), 14 mg/l O-phosphoethanolamine (Sigma Chemical Co.), 6.1 mg/l ethanolamine (Sigma Chemical Co.), 50 U/ml penicillin (Wako Pure Chemical Industries, Ltd.), 50 µg/ml streptomycin (Wako Pure Chemical Industries, Ltd.) and a dimethyl sulfoxide (DMSO) solution containing a peptide of the present invention (added in an amount of 1/100 by volume based on the medium), followed by further culturing in 5% CO2 at 37°C for 5 days. During the culturing, the medium was replaced with a fresh one every other day.
As a control, the cells were cultured in the same medium as above except that DMSO containing no peptide was added in an amount of 1/100 by volume based on the culture in place of DMSO containing the peptide.
The degree of cell growth was measured referring to the method using Neutral Red [Journal of Tissue Culture Method, 9, 1, 7-9 (1984)].
After the completion of culturing, the medium was sucked and the resulting cells were cultured in MCDB153 medium containing 50 mg/l Neutral Red (Sigma Chemical Co.) in 5% CO2 at 37°C for 3 hours. […] The degree of cell growth was determined by measuring the absorbance of the extract at 540 nm. […]

For `CC[C@H](C)[C@H](NC(=O)[C@@H](N)CCSC)C(=O)N[C@@H](Cc1ccccc1)C(=O)O` [MIF] (H-Met-Ile-Phe-OH), the “Rate of increased hair-grown area (%)” value in data set [1] (0.005% addition to feed) was determined as 26.8%. The solubility in data set [2] came out at 30000 µg/mL (≈ 73300 µM).

In data set [2], `CC[C@H](C)[C@H](NC(=O)[C@@H](NC(=O)[C@@H](N)CCSC)[C@@H](C)CC)C(=O)N[C@@H](CC(C)C)C(=O)O` [MIIL] (H-MIIL-OH) returned a solubility of 200 µg/mL (≈ 409 µM). Besides, the Phagocytosis activity stood at 1.18 ± 0.07 in data set [3] (Concentration 1 µM), 1.62 ± 0.08 in data set [3] (Concentration 3 µM), 2.52 ± 0.18 in data set [3] (Concentration 10 µM) and 2.95 ± 0.20 in data set [3] (Concentration 30 µM).

`CC[C@H](C)[C@H](NC(=O)[C@@H](N)CCSC)C(=O)N[C@@H](CC(C)C)C(=O)N[C@@H](CC(C)C)C(=O)O` [MILL] (H-MILL-OH) yielded a solubility in data set [2] of 200 µg/mL (≈ 409 µM). For the same compound, the results for the Phagocytosis activity in data set [3] (Concentration 3 µM), in data set [3] (Concentration 10 µM) and in data set [3] (Concentration 30 µM) were 1.28 ± 0.09, 2.05 ± 0.08 and 2.97 ± 0.17, respectively.

Take `CC[C@H](C)[C@H](NC(=O)[C@@H](N)CCSC)C(=O)N[C@@H](Cc1c[nH]c2ccccc12)C(=O)N[C@@H](CC(C)C)C(=O)O` [MIWL] (H-MIWL-OH): in data set [1] (0.05% addition to feed), the “Rate of increased hair-grown area (%)” value is 34.4%. Further, in data set [2], the solubility stood at 200 µg/mL (≈ 356 µM). Further, the Phagocytosis activity in data set [3] (Concentration 0.1 µM) stood at 1.93 ± 0.18; in data set [3] (Concentration 0.3 µM) it was 2.74 ± 0.25; in data set [3] (Concentration 1 µM), 3.11 ± 0.07; in data set [3] (Concentration 3 µM) it was 3.04 ± 0.50.

Take `CC[C@H](C)[C@H](NC(=O)[C@@H](N)CCSC)C(=O)N[C@@H](Cc1ccc(O)cc1)C(=O)N[C@@H](CC(C)C)C(=O)O` [MIYL] (H-MIYL-OH): the solubility in data set [2] was 300 µg/mL (≈ 557 µM). Also, the Phagocytosis activity in data set [3] (Concentration 1 µM) was 1.32 ± 0.15; in data set [3] (Concentration 3 µM) it was 2.21 ± 0.25; in data set [3] (Concentration 10 µM), 3.12 ± 0.32.

For `CC[C@H](C)[C@H](NC(=O)[C@@H](N)CCSC)C(=O)N[C@@H](Cc1ccccc1)C(=O)N[C@@H](CC(C)C)C(=O)O` [MIFL] (H-MIFL-OH), in data set [2], the concentration in solution (solubility) was 200 µg/mL (≈ 383 µM). The Phagocytosis activity in data set [3] (Concentration 0.1 µM) was found to be 1.10 ± 0.09; in data set [3] (Concentration 0.3 µM) it was 1.68 ± 0.08; in data set [3] (Concentration 1 µM), 2.45 ± 0.17; in data set [3] (Concentration 3 µM), 3.06 ± 0.25.

For `CC[C@H](C)[C@H](NC(=O)[C@@H](N)CCSC)C(=O)N[C@@H](Cc1c[nH]c2ccccc12)C(=O)O` [MIW] (H-Met-Ile-Trp-OH), the “Relative cell growth rate (%) (based on the control)” value in data set [4] (Concentration 1 µM) was 97%; in data set [4] (Concentration 3 µM), 143%; in data set [4] (Concentration 10 µM), 130%; in data set [4] (Concentration 30 µM), 123%; in data set [4] (Concentration 100 µM), 119%. Further, the entries for the “Rate of increased hair-grown area (%)” value in data set [1] (0.005% addition to feed) and in data set [1] (0.05% addition to feed) were 20.7% and 23.7%, respectively. This compound displayed a solubility in data set [2] of 1000 µg/mL (≈ 2230 µM).
